From EP0851862B1, “1(HETERO)ARYL-4-(CONDENSED THIAZOL-2-YLALKYL)-PIPERAZINE DERIVATIVES, THEIR PREPARATION AND THEIR USE IN THE TREATMENT OF 5-HT1A-RECEPTOR MEDIATED DISORDERS” (Pharmacia Italia S.p.A., priority 1995, dated 1997)
Structures can show the parent of a compound that is named as a salt.

Experiments:
α1 = assay: receptor binding profile, α1; details: read-out: α1 Affinity is expressed as IC50
5-HT1A receptor sites = target: T1, 5-HT1A receptor sites (Rattus norvegicus, UniProt P19327); assay: receptor binding profile, 5-HT1A; details: read-out: 5-HT1A Affinity is expressed as IC50
T1 sequence (P19327 1-422): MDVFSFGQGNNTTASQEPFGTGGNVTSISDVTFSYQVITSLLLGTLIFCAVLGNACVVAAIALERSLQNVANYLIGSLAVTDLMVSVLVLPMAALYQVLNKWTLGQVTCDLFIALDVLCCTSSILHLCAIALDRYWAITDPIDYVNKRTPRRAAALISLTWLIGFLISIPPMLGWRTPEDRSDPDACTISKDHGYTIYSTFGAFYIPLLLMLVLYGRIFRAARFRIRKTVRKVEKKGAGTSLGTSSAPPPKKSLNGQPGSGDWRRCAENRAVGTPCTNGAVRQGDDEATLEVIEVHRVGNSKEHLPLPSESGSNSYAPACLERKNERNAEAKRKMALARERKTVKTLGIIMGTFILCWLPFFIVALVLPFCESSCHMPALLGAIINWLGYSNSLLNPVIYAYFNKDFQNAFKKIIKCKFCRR
Description: The affinity of the compounds of the present invention towards 5-HT1A receptor sites can be assessed by evaluating the binding profile of the compounds of formula (I).

5-HT2 = 5-HT2 (Rattus norvegicus, UniProt P14842); assay: receptor binding profile, 5-HT2; details: read-out: 5-HT2 Affinity is expressed as IC50
Chain of 5-HT2 (P14842 whole entry): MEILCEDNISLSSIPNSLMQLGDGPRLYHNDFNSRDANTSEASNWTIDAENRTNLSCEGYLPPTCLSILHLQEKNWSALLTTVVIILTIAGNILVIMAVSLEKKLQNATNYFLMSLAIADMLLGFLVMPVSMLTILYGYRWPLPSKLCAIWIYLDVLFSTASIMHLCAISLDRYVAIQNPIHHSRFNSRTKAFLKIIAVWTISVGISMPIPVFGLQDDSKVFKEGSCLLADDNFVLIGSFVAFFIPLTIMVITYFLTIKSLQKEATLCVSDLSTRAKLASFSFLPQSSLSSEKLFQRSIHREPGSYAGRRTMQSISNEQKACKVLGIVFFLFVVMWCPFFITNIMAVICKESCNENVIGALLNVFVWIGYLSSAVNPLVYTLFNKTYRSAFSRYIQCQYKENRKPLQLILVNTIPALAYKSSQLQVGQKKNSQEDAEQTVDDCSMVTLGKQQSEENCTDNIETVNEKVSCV

D2 = D2 (Rattus norvegicus, UniProt P61169); assay: receptor binding profile, D2; details: read-out: D2 Affinity is expressed as IC50
Chain of D2 (P61169 whole entry): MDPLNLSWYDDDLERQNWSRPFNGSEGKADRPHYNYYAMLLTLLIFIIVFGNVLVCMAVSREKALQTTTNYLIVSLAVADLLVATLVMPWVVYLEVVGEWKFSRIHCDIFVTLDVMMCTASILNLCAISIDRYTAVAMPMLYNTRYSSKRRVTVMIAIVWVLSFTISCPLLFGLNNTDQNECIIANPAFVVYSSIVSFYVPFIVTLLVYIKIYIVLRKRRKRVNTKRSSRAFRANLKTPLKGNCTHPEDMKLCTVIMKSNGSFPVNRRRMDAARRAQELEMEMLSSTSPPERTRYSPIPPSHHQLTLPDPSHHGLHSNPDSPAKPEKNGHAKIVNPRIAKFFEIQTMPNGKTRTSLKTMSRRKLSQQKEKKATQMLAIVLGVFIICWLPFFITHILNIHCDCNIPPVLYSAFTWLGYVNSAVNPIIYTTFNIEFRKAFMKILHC

D1 = D1 (Rattus norvegicus, UniProt P18901); assay: receptor binding profile, D1; details: read-out: D1 Affinity is expressed as IC50
Chain of D1 (P18901 whole entry): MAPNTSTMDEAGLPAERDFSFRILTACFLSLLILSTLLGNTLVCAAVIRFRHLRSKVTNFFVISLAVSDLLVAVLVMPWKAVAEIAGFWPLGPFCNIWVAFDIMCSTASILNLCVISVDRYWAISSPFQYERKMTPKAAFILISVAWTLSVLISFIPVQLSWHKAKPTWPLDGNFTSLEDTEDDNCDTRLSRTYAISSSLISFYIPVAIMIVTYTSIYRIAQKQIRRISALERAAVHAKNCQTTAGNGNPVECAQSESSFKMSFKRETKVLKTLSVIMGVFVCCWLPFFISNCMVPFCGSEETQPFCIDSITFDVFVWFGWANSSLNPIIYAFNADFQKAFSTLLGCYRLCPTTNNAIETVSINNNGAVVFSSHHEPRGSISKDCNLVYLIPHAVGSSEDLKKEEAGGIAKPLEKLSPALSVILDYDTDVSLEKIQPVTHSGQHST

α2 = assay: receptor binding profile, α2; details: read-out: α2 Affinity is expressed as IC50

Row | Molecule | IC50 (α1) | IC50 (5-HT1A receptor sites) | IC50 (5-HT2) | IC50 (D2) | IC50 (D1) | IC50 (α2)
1 | 5-Methoxy-2-[4-(4-phenyl-piperazin-1-yl)-butyl]-4,5-dihydro-naphtho[1,2-d]thiazole hydrochloride [(11)] | 52 nM | 10 nM | 66 nM | 24 nM | 1770 nM | 18 nM
2 | 5-Methoxy-2-{4-[4-(2-methoxy-phenyl)-piperazin-1-yl]-butyl}-4,5-dihydro-naphtho[1,2-d]thiazole hydrochloride [(13)] | 35 nM | 3.7 nM | 240 nM | 8 nM |  | 46 nM
3 | 5-Methoxy-2-{4-[4-(2-pyridyl)-piperazin-1-yl]-butyl}-4,5-dihydro-naphtho[1,2-d]thiazole hydrochloride [(12)] | 190 nM | 8.2 nM | 82 nM | 61 nM | 1490 nM | 390 nM
4 | 6-Methoxy-2-[4-(4-phenyl-piperazin-1-yl)-butyl]-4,5-dihydro-naphtho[1,2-d]thiazole hydrochloride [(10)] | 1140 nM | 400 nM | 3180 nM | 680 nM | > 10000 nM | 3770 nM
5 | 6-Methoxy-2-{4-(4-(2-methoxy-phenyl)-piperazin-1-yl]-butyl}-4,5-dihydro-naphtho[1,2-d]thiazole hydrochloride [(1)] | 52 nM | 3.2 nM | 250 nM | 20 nM | 590 nM | 92 nM
6 | 7-Methoxy-2-[4-(4-phenyl-piperazin-1-yl)-butyl]-4,5-dihydro-naphtho[1,2-d]thiazole hydrochloride [(7)] | 49 nM | 12 nM | 870 nM | 25 nM | 1180 nM | 500 nM
7 | 7-Methoxy-2-{4-[4-(2-methoxy-phenyl)-piperazin-1-yl]-butyl}-4,5-dihydro-naphtho[1,2-d]thiazole hydrochloride [(8)] | 200 nM | 7 nM | 720 nM | 150 nM | 1610 nM | 380 nM
8 | 7-Methoxy-2-{4-[4-(2-pyridyl)-piperazin-1-yl]-butyl}-4,5-dihydro-naphtho[1,2-d]thiazole hydrochloride [(9)] | 58 nM | 4.1 nM | 55 nM | 11 nM | 430 nM | 20 nM
9 | c1ccc(N2CCN(Cc3nc4c(s3)CCc3ccccc3-4)CC2)cc1 [(2), 2-[(4-phenyl-piperazin-1-yl)-methyl]-4,5 dihydronaphtho[1,2-d]thiazole hydrocloride] | 130 nM | 42 nM | 300 nM |  |  | 300 nM
10 | c1ccc(N2CCN(CCc3nc4c(s3)CCc3ccccc3-4)CC2)cc1 [(3)] | 110 nM | 170 nM | 63 nM |  |  | 160 nM
11 | c1ccc(N2CCN(CCCc3nc4c(s3)CCc3ccccc3-4)CC2)cc1 [(4), 2-[3-(4-phenyl-piperazin-1-yl)-propyl]-4,5-dihydronaphtho[1,2-d]thiazole hydrocloride] | 120 nM | 69 nM | 280 nM |  |  | 110 nM
12 | c1ccc(N2CCN(CCCCc3nc4c(s3)CCc3ccccc3-4)CC2)cc1 [(5), 2-[4-(4-phenyl-piperazin-1-yl)-butyl]-4,5-dihydronaphtho[1,2-d]thiazole hydrocloride] | 170 nM | 67 nM | 66 nM |  |  | 260 nM
13 | COc1ccc2c(c1)CCc1sc(CCCN3CCN(c4ccccc4OC)CC3)nc1-2 [(6), 7-Methoxy-2-{3-[4-(2-methoxy-phenyl) -piperazin-1-yl]-propyl}-4,5-dihydro-naphtho[1,2-d]thiazole hydrochloride] | 90 nM |  |  |  |  | 160 nM
